US20110288052A1, “NOVEL COMPOUNDS, PHARMACEUTICAL COMPOSITIONS CONTAINING SAME, AND METHODS OF USE FOR SAME” (priority 2008, published 2011)
≈ marks a conversion by molar mass, not a printed value. Where two headings read alike, the source gives them in different places.

What was measured:
[1] = system: MCF-7 human breast cancer cells; test: XTT cytotoxicity assay, MCF-7 (M); format: cell-based; conditions: MCF7, MCF-7, 72 hours
Experimental: XTT Cytotoxicity Assay The XTT assay is a non-radioactive alternative for the [^51Cr] release cytotoxicity assay. XTT is a tetrazolium salt that is reduced to a formazan dye only by metabolically active, viable cells. The reduction of XTT is measured spectrophotometrically as OD490-OD650. To measure the cytotoxicity of specific compounds against cancer cells, 9×10^3 MCF-7 human breast cancer cells (shown in the tables as “(M)”), obtained from the American Type Culture Collection are plated per well in 96 well plates in DMEM medium with 10% fetal bovine serum, insulin, penicillin, and streptomycin. Following overnight culture at 37° C. and 5% CO2, the compounds to be tested, dissolved in DMSO, are added to the wells in 1 μl volume at the following concentrations: 80, 40, 20, 10, 5, 2.5, 1.25, and 0.625 μg/ml in triplicate. Additional concentrations are tested if required. 1 μl of DMSO is added to triplicate wells are the vehicle control. C75 is run at 40, 20, […], and 5 μg/ml in triplicate as positive controls. After 72 hours of incubation, cells are incubated for 4 hours with the XTT reagent as per manufacturer's instructions (Cell Proliferation Kit II (XTT) Roche). Plates are read at OD490 and OD650 on a Molecular Devices SpectraMax Plus Spectrophotometer. Three wells containing the XTT reagent without cells serve as the plate blank. XTT data are reported as OD490-OD650. Averages and standard error of the mean are computed using SOFTmax Pro software (Molecular Dynamics). The IC50 for the compounds is defined as the concentration of drug leading to a 50% reduction in OD490-OD650 compared to controls. The OD490-OD650 are computed by the SOFTmax PRO software (Molecular Devices) for each compound concentration. IC50 is calculated by linear regression, plotting the FAS activity as percent of control versus drug concentrations. Linear regression, best-fit line, r^2, and 95% confidence intervals are determined using Prism Version 3.0 (Graph Pad Software).

OVCAR3 cells = test: XTT cytotoxicity assay, OVCAR3 (OV); format: cell-based; conditions: Homo sapiens
Experimental: (§1) XTT Cytotoxicity Assay The XTT assay is a non-radioactive alternative for the [^51Cr] release cytotoxicity assay. XTT is a tetrazolium salt that is reduced to a formazan dye only by metabolically active, viable cells. The reduction of XTT is measured spectrophotometrically as OD490-OD650. To measure the cytotoxicity of specific compounds against cancer cells, 9×10^3 MCF-7 human breast cancer cells (shown in the tables as “(M)”), obtained from the American Type Culture Collection are plated per well in 96 well plates in DMEM medium with 10% fetal bovine serum, insulin, penicillin, and streptomycin. Following overnight culture at 37° C. and 5% CO2, the compounds to be tested, dissolved in DMSO, are added to the wells in 1 μl volume at the following concentrations: 80, 40, 20, 10, 5, 2.5, 1.25, and 0.625 μg/ml in triplicate. Additional concentrations are tested if required. 1 μl of DMSO is added to triplicate wells are the vehicle control. C75 is run at 40, 20, […], and 5 μg/ml in triplicate as positive controls. After 72 hours of incubation, cells are incubated for 4 hours with the XTT reagent as per manufacturer's instructions (Cell Proliferation Kit II (XTT) Roche). Plates are read at OD490 and OD650 on a Molecular Devices SpectraMax Plus Spectrophotometer. Three wells containing the XTT reagent without cells serve as the plate blank. XTT data are reported as OD490-OD650. Averages and standard error of the mean are computed using SOFTmax Pro software (Molecular Dynamics). The IC50 for the compounds is defined as the concentration of drug leading to a 50% reduction in OD490-OD650 compared to controls. The OD490-OD650 are computed by the SOFTmax PRO software (Molecular Devices) for each compound concentration. IC50 is calculated by linear regression, plotting the FAS activity as percent of control versus drug concentrations. Linear regression, best-fit line, r^2, and 95% confidence intervals are determined using Prism Version 3.0 (Graph Pad Software). The test was also run against OVCAR3 cells (“OV”), and HCT116 cells (“H”).

HCT116 cells = test: XTT cytotoxicity assay, HCT116 (H); format: cell-based; conditions: Homo sapiens, HCT-116
Experimental: as §1

[2] = system: Enterococcus faecalis (ATCC # 29212); test: Broth microdilution antimicrobial assay, E. faecalis; format: cell-based
Experimental: Antimicrobial Properties A broth microdilution assay is used to assess the antimicrobial activity of the compounds. Compounds are tested at twofold serial dilutions, and the concentration that inhibits visible growth (OD600 at 10% of control) is defined as the MIC. Microorganisms tested include Staphylococcus aureus (ATCC # 29213), Enterococcus faecalis (ATCC # 29212), Pseudomonas aerpginosa (ATCC # 27853), and Escherichia coli (ATCC # 25922). The assay is performed in two growth media, Mueller Hinton Broth and Trypticase Soy Broth.
A blood (Tsoy/5% sheep blood) agar plate is inoculated from frozen stocks maintained in T soy broth containing 10% glycerol and incubated overnight at 37° C. Colonies are suspended in sterile broth so that the turbidity matches the turbidity of a 0.5 McFarland standard. The inoculum is diluted 1:10 in sterile broth (Mueller Hinton or Trypticase soy) and 195 μl is dispensed per well of a 96-well plate. The compounds to be tested, dissolved in DMSO, are added to the wells in 5 μl volume at the following concentrations: 25, 12.5, 6.25, 3.125, 1.56 and 0.78 μg/ml in duplicate. Additional concentrations are tested if required. 5 μl of DMSO added to duplicate wells are the vehicle control. Serial dilutions of positive control compounds, vancomycin (E. faecalis and S. aureus) and tobramycin (E. coli and P. aerpginosa), are included in each run.
After 24 hours of incubation at 37° C., plates are read at OD600 on a Molecular Devices SpectraMax Plus Spectrophotometer. Average OD600 values are computed using SOFTmax Pro Software (Molecular Devices) and MIC values are determined by linear regression analysis using Prism version 3.02 (Graph Pad Software, San Diego). The MIC is defined as the concentration of compound required to produce an OD600 reading equivalent to 10% of the vehicle control reading.

[3] = system: MCF-7 human breast cancer cells (fatty acid oxidation pathway activity); test: Fatty acid oxidation ([14C]palmitate to acid soluble products); format: cell-based; conditions: for Emax at 0.098 µg/mL: at 0.098 μg/ml
Experimental: Measurement of Fatty Acid Oxidation and Determination of SC150 of Compounds This assay measures the degradation of [^14C]palmitate into acid soluble products and is a measure of fatty acid oxidation pathway activity in vitro. It is utilized to measure fatty acid oxidation in vitro. MCF-7 human breast cancer cells cultured as above, are plated at 2.5×10^5 cells per well in 24-well plates. Following overnight incubation, the compounds to be tested, solubilized in DMSO, are added at […], 0.39, 1.56, 6.25, 25, and 100 μg/ml in triplicate, with lower concentrations tested if necessary. DMSO is added to triplicate wells for a vehicle control. C75 is run at 5 and 10 μg/ml in triplicate as positive controls. After 1 hour of incubation, medium is removed 100 uM of [^14C] palmitate in cyclodextran and 200 uM carnitine in serum free medium (250 μl volume) is added to each well. After 30 minutes of additional incubation, the reaction is stopped by addition of 2.6N HClO4. Contents of each well are transferred to 1.5 ml Eppendorf tubes and 4N KOH is added. The tubes are incubated for 30 minutes at 60° C. 1 M NaAcetate and 3N H2SO4 is added to each tube and vortexed. The tubes are centrifuged at 1000 rpm for 5 minutes at RT. 250 μl of the supernatant is transferred to a 2 ml eppendorf tube. To each tube is added: 938 μl of chloroform:methanol (1:1), 468 μl chloroform and 281 μl of deionized water. The tubes are vortexed and centrifuged at 1000 rpm for 5 minutes at RT. 750 μl of the upper phase is transferred into a scintillation vial 5 ml of scintillant is added and vials are counted for 1 minute for ^14C. The Beckman Scintillation counter calculates the average cpm values for triplicates. The SC150 for the compounds is defined as the concentration of drug leading to a 150% increase in production of acid soluble products of [^14C] palmitate as compared to untreated controls. This is determined by plotting the average cpm for each inhibitor concentration tested, performing linear regression and computing the best-fit line, r^2 values, and 95% confidence intervals. The average cpm values are computed by the Beckman scintillation counter (Model LS6500) for each compound concentration. Computation of linear regression, best-fit line, r^2, and 95% confidence intervals are calculated using Prism Version 3.0 (Graph Pad Software). If a compound fails to achieve this 150% threshold it is considered negative. The maximum value achieved is also reported (FAO Max).

[4] = Solubility problem noted during the assays; format: physicochemical; conditions: read-out: Sol Prob (solubility problem at concentration)
[5] = system: MCF-7 human breast cancer cells (fatty acid synthesis pathway activity); test: [14C]acetate incorporation into total lipids; format: cell-based; conditions: MCF7, [14C]acetate incorporation into lipids
Experimental: Measurement of [^14C]acetate Incorporation into Total Lipids and Determination of IC50 of Compounds. This assay measures the incorporation of [^14C]acetate into total lipids and is a measure of fatty acid synthesis pathway activity in vitro. It is utilized to measure inhibition of fatty acid synthesis in vitro.
MCF-7 human breast cancer cells cultured as above, are plated at 5×10^4 cells per well in 24-well plates. Following overnight incubation, the compounds to be tested, solubilized in DMSO, are added at 5, 10, and 20 μg/ml in triplicate, with lower concentrations tested if necessary. DMSO is added to triplicate wells for a vehicle control. C75 is run at 5 and 10 μg/ml in triplicate as positive controls. After 4 hours of incubation, 0.25 μCi of [^14C]acetate (10 μl volume) is added to each well.
After 2 hours of additional incubation, medium is aspirated from the wells and 800 μl of chloroform:methanol (2:1) and 700 μl of 4 mM MgCl2 is added to each well. Contents of each well are transferred to 1.5 Eppendorf tubes, and spun at full-speed for 2 minutes in a high-speed Eppendorf Microcentrifuge 5415D. After removal of the aqueous (upper) layer, an additional 700 μl of chloroform:methanol (2:1) and 500 μl of 4 mM MgCl2 are added to each tube and then centrifuged for 1 minutes as above. The aqueous layer is removed with a Pasteur pipette and discarded. An additional 400 μl of chloroform:methanol (2:1) and 200 μl of 4 mM MgCl2 are added to each tube, then centrifuged and aqueous layer is discarded. The lower (organic) phase is transferred into a scintillation vial and dried at 40° C. under N2 gas. Once dried, 3 ml of scintillant (APB #NBC5104) is added and vials are counted for ^14C. The Beckman Scintillation counter calculates the average cpm values for triplicates.
The IC50 for the compounds is defined as the concentration of drug leading to a 50% reduction in [^14C]acetate incorporation into lipids compared to controls. This is determined by plotting the average cpm for each inhibitor concentration tested, performing linear regression and computing the best-fit line, r^2 values, and 95% confidence intervals. The average cpm values are computed by the Beckman scintillation counter (Model LS6500) for each compound concentration. Computation of linear regression, best-fit line, r^2, and 95% confidence intervals are calculated using Prism Version 3.0 (Graph Pad Software).

[6] = Homo sapiens, MCF7, read-out: FAO Max

EF/MH (MIC) ([2]; Mueller Hinton Broth)	EF/Tsoy (MIC) ([2]; Trypticase Soy Broth)	solubility ([4]; noted under the 14C column, unit inferred) [µg/mL]	IC50 [5] [µg/mL]	solubility [4] [µg/mL]	SMILES	IC50 [1] [µg/mL]	IC50 (OVCAR3 cells; OVCAR-3) [µg/mL]	IC50 (HCT116 cells) [µg/mL]	IC50 (OVCAR3 cells; OVCAR-3, unit given as ml) [µg/mL]	Emax at 6.25 µg/mL ([3]; Homo sapiens, MCF7, at 6.25 μg/ml, read-out: FAO Max) [%]	FAO SC 150 ([3]; concentration leading to 150% of control acid soluble products, Neg = threshold not reached)	Emax at 1.56 µg/mL ([3]; Homo sapiens, MCF7, at 1.56 μg/ml, read-out: FAO Max) [%]	Emax at 0.098 µg/mL [3, 6] [%]
Neg	Neg	–	–	–	CCCCCCCCC1(C)SC(=O)C=C1OCC(=O)Nc1ccc(C)cc1 (stereo not drawn)	6.8 (≈ 17.5 µM)	8.1 (≈ 20.8 µM)	12.8 (≈ 32.9 µM)	–	–	–	–	–
–	–	80 (≈ 185 µM)	–	–	CCCCCCCCC1(C)SC(=O)C=C1OCC(=O)Nc1ccc(C(=O)OC)cc1 (stereo not drawn)	6.5 (≈ 15 µM)	–	6.3 (≈ 14.5 µM)	12.7 (≈ 29.3 µM)	126	Neg	–	–
–	–	–	12.3 (≈ 29.4 µM)	80 (≈ 191 µM)	CCCCCCCCC1(C)SC(=O)C=C1OCC(=O)Nc1ccc(C(N)=O)cc1 (stereo not drawn)	10.2 (≈ 24.4 µM)	21.5 (≈ 51.4 µM)	10.6 (≈ 25.3 µM)	–	–	–	–	–
–	–	–	> 80	80 (≈ 200 µM)	CCCCCCCCC1(C)SC(=O)C=C1OCC(=O)Nc1ccc(C#N)cc1 (stereo not drawn)	3.8 (≈ 9.49 µM)	6.6 (≈ 16.5 µM)	5.3 (≈ 13.2 µM)	–	–	–	–	–
–	–	–	26.3 (≈ 57.9 µM)	80 (≈ 176 µM)	CCCCCCCCC1(C)SC(=O)C=C1OCC(=O)Nc1ccc(S(N)(=O)=O)cc1 (stereo not drawn)	7 (≈ 15.4 µM)	13.4 (≈ 29.5 µM)	8.7 (≈ 19.1 µM)	–	–	–	–	–
–	–	–	–	–	CCCCCCCCC1(C)SC(=O)C=C1OCC(=O)N1CCN(c2ccc(C(F)(F)F)cc2)CC1 (stereo not drawn)	50.7 (≈ 98.9 µM)	> 80	> 80	–	–	–	118	–
–	–	–	–	–	CCCCCCCCC1(C)SC(=O)C=C1OCC(=O)N1CCN(c2ccc(Cl)cc2)CC1 (stereo not drawn)	35.7 (≈ 74.5 µM)	24.4 (≈ 50.9 µM)	9.7 (≈ 20.2 µM)	–	–	–	–	79
–	–	–	–	–	CCCCCCCCC1(C)SC(=O)C=C1OCC(=O)N1CCN(c2ccc(OC)cc2)CC1 (stereo not drawn)	> 80	> 80	> 80	–	–	–	–	53
–	–	–	–	–	CCCCCCCCC1(C)SC(=O)C=C1OCC(=O)N1CCN(Cc2ccc(OC)cc2)CC1 (stereo not drawn)	13.6 (≈ 27.8 µM)	79.8 (≈ 163 µM)	69.7 (≈ 143 µM)	–	–	–	–	83
